Experiments:
Format in all cases: cell-based, human
PBMC [1] = test: Cytokine secretion ELISA (IFN-γ, IL-10, IL-4) of PBMC cultures; conditions: FIG. 5a
Method: (§1) Cytokine Secretion ELISA. ELISA were based on previously published methods and were performed from 3-7 days of in vitro cell culture. The following antibody pairs were used: purified mouse anti-IFN-γ (clone NIB42) and biotinylated mouse anti-IFN-γ (clone 4S.B3); purified mouse anti-IL-10 (clone JES3-19F1) and biotinylated mouse anti-IL-10 (clone JES3-12G8); purified mouse anti-IL-4 (clone 8D4-8) and biotinylated mouse anti-IL-4 (clone MP4-25D2) (all from BD Biosciences, Oxford, UK). All recombinant human cytokines (IFN-γ, IL-4, and IL-10) were purchased from Peprotech EC Ltd. (London, UK).

PBMC [2] = test: sCTLA-4 secretion ELISA, PBMC from healthy adult donors
PBMC [3] = test: Proliferation assay (3H thymidine incorporation) of PBMC; conditions: FIG. 5a
Method: Proliferation Assay. Cell proliferation was assessed by the incorporation of ^3H thymidine, as previously described.

[4] = tested on: Lymphocytes from patients with autoimmune haemolytic anaemia; test: Peptide mapping assay for sCTLA-4 production (RhD peptides); conditions: 1 million lymphocytes per peptide, five days at 37° C., seven AIHA patients, FIG. 9
Method: Peptide mapping experiments to identify peptides which stimulate sCTLA-4 production were performed as follows. Each peptide (1 to 42) was derived from the RhD autoantigen. Lymphocytes (1 million per peptide) from patients with autoimmune haemolytic anaemia were added to individual peptides and incubated for five days at 37° C. At the end of this period the cell cultures were assessed for an increase in sCTLA-4 production. In these assays a stimulation index of 2 is considered a positive result (twice as much sCTLA-4 detected compared with non-stimulated control).
Certain peptides in some cases stimulated sCTLA-4 production by three, four or even ten times higher than non-stimulated cells alone.

[5] = tested on: PBMC from patients with AIHA; test: sCTLA-4 and IL-4 secretion by PBMC from AIHA patients incubated with RhD; conditions: one patient from an initial sample of six, FIG. 3
Method: FIG. 3. Differential stimulation of sCTLA-4 secretion by PBMC sampled from AIHA patients in response to incubation with RhD protein antigen.
as §1
We also developed a similar secretion ELISA for sCTLA-4 with antibodies identified previously. Briefly, sCTLA-4 was measured in vitro by incubating a capture anti-CTLA-4 antibody (clone: BNI3 2μg ml^−1) in 96 well Nunc Maxisorp plates for 2 hours at 37° C. Plates were washed and blocked with 3% BSA before the addition of test cell culture suspension. […] Developed plates were measured with a Multiskan MS microplate photometer (Life and Laboratory Sciences, Basingstoke, UK) at an absorbance of 405 nm. […]

anti-CD3 antibody: Stimulatory anti-CD3 antibody (clone OKT3) purified from hybridoma cell culture supernatants
IFN-γ secretion, PPD versus anti-CD3 cultures (PBMC [1]): similar | IL-10 secretion, anti-CD3 compared with PPD (PBMC [1]): increase | sCTLA-4 levels compared with non-stimulated PBMC, all individuals analyzed (PBMC [2]; 12 healthy individuals, FIG. 5b, P<0.01 Wilcoxon for PPD, anti-CD3 data not shown): invariably reduced | sCTLA-4 levels in vitro compared with non-stimulated PBMC (PBMC [2]; individual donor profile, FIG. 5a, 5 days, 37° C., stimulus 5 μg ml−1): dramatically reduced | Proliferation, PPD versus anti-CD3 cultures (PBMC [3]): similar

SSKYPRSVRRCLPLW [Peptide 1, peptide derived from the RhD autoantigen, residues 2-16]
stimulation of sCTLA-4 production (stimulation index versus non-stimulated control; 2 is positive) [4]: particularly effective

B1: RhD autoantigen: AIHA-associated autoantigen RhD protein (protein, UniProt Q02161 2-417, looked up)
Blood group Rh(D) polypeptide: SSKYPRSVRRCLPLWALTLEAALILLFYFFTHYDASLEDQKGLVASYQVGQDLTVMAAIGLGFLTSSFRRHSWSSVAFNLFMLALGVQWAILLDGFLSQFPSGKVVITLFSIRLATMSALSVLISVDAVLGKVNLAQLVVMVLVEVTALGNLRMVISNIFNTDYHMNMMHIYVFAAYFGLSVAWCLPKPLPEGTEDKDQTATIPSLSAMLGALFLWMFWPSFNSALLRSPIERKNAVFNTYYAVAVSVVTAISGSSLAHPQGKISKTYVHSAVLAGGVAVGTSCHLIPSPWLAMVLGLVAGLISVGGAKYLPGCCNRVLGIPHSSIMGYNFSLLGLLGEIIYIVLLVLDTVGAGNGMIGFQVLLSIGELSLAIVIALMSGLLTGLLLNLKIWKAPHEAKYFDDQVFWKFPHLAVGF
IL-4 secretion compared with negative controls [5]: higher levels | sCTLA-4 secretion compared with negative controls [5]: higher levels

Source: patent US20090110701A1, “T-CELL MODULATION” (THE UNIVERSITY COURT OF THE UNIVERSITY OF ABERDEEN, priority 2004, published 2009)
